# Laboratory results as given in patent US7829331B2, “Use of urea-adjuvated polypeptides for diagnosis, prophylaxis and treatment” (priority 2002, dated 2010).
# Experiments:
# PBMC [1] = assay: Influence of urea on the vitality of PBMC (Trypan blue counting); format: cell-based
# Method: In order to test the influence of urea on the cell vitality, PBMC, as described in Example 2, were purified from the heparinised whole blood of 3 healthy donors ([…]) and respectively 1×10^6 cells in four replicates in T-cell medium (RPMI 1640 with 5% human serum, 2 mM glutamine and 100 U/ml penicillin/100 μg/ml streptomycin (all components from PanSystems, Aidenbach)) was mixed with increasing concentrations of urea (0, 0.05, 0.1, 0.2, 0.3, 0.4, 0.8 or 1.6 mol/liter) and incubated in wells of a 48-well microtitre plate for 17 hours in an incubator with humidified atmosphere and 5% CO2 gassing at 37° C. An 8M urea stock solution which was mixed with 2M NaCl and 2 mM DTE was used for these experiments. The cells were then resuspended in the cultivation formulation by repeatedly pipetting the medium on and off and the total number of cells and the ratio of the living to dead cells was determined using a Neubauer “improved” counting chamber after staining with a Trypan blue solution (0.5% w/v).
# PBMC [2] = assay: IFN-γ ELIspot of PBMC incubated with urea; format: cell-based, human; conditions: 24 hours; for IFN-γ secretion from PBMCs: donor one
# Method: Furthermore, it should be clarified by ELIspot analyses whether urea in populations of purified PBMCs triggers the secretion of cytokines, especially IFN-γ. For this purpose, 96-well nitrocellulose-coated microtitre plates, as described in detail in Example 2, were coated with a monoclonal anti-human IFN-γ antibody (Hölzl, Cologne) (5 μg/ml in PBS) and incubated overnight at 4° C. The antibody solution was pipetted off and the plates were washed four times using 200 μl PBS/formulation in each case. In a following step non-specific binding sites were blocked by adding 200 μl of blocking medium in each case (RPMI with 10% FCS) during a one-hour incubation at 37° C.
# PBMC of a healthy donor ([…]) were taken up in a concentration of respectively 2×10^5 purified PBMC/150 μL in T-cell medium containing different urea concentrations (0, 0.05, 0.1, 0.2, 0.3, 0.4, 0.8, and 1.6 mol/liter) (5 replicates each) and the stimulation formulations were incubated for 24 hours in an incubator with a humidified atmosphere with 5% CO2 gassing at 37° C. An 8M urea stock solution which was mixed with 2M NaCl and 2 mM DTE was used for these experiments. The cell suspension was then drawn off and any cells still adhering were removed by washing six times (in each case 200 μl PBS with 0.1% Tween 20, 3 min incubation with washing buffer in each case). The secondary biotinylated antibody (1 μg/ml in PBS, 100 μl/formulation in each case) was then added; the plates were incubated for 2 hours at RT, then washed (6 times, 200 μl PBS/formulation in each case) and incubated for 1 hour with a streptavidin alkaline phosphatase (AP) conjugate (1 μg/ml in PBS; 100 μl/formulation in each case; Hölzl, Cologne). After a last washing step (6 times 200 μl PBS/formulation in each case), the colour reaction took place by adding the enzyme substrate NBT/BCIP (Boehringer, Mannheim). For this purpose a staining solution was prepared [200 μl NBT/BCIP-stock solution to 10 ml staining buffer (0.1 M tris-buffer, pH 9.5 with 0.05 M MgCl2, 0.1 M NaCl)] and 100 μl/formulation was used in each case.
# After 10 min the calorimetric reaction was stopped by washing the plates with deionised water (Biosys 2000, BioSys, Karben).
# rabbit = assay: Immunisation of a rabbit with urea-adjuvated BZLF1 polypeptide, serum tested in the immunoblot; format: in vivo; conditions: intramuscular, 8M urea
# Method: In order to test the suitability of urea-adjuvated BZLF-1 polypeptide, 30 μg of BZLF1 polypeptide in 8M urea was adjuvated with Hunters Titermax as specified by the manufacturer (Sigma) and administered intramuscularly to a rabbit. The animal was re-immunised with the same immunogen 4 and 8 week as after the basic immunisation. After a further 3 weeks, blood was taken from the animal and the serum obtained therefrom was tested in different dilutions (1:2000; 1:10000 and 1:50000) in the immunoblot for the presence of BZLF1 specific antibodies. For this purpose BZLF1 polypeptide produced recombinantly in E. coli in various concentrations (20 ng, 100 ng and 500 ng) was separated in a 12.5% SDS gel and the proteins were then transferred onto nitrocellulose. After the protein transfer the still-free protein binding sites on the nitrocellulose were saturated by incubating with a 5% solution of skimmed milk powder in TBS (500 mM NaCl, 25 mM Tris pH 7.5), shaking slightly. The Blot was then washed four times with TTBS for at least 10 min before it was incubated for 1 to 12 hours with the corresponding dilution of the rabbit serum in TBS. […]
structure (smiles),measurement,setting,value
NC(N)=O [urea],number of dead cells,PBMC [1],significantly increased number of dead cells
same,Living/dead,"PBMC [1]; donor one, urea 0.05 mol/liter, 17 hours",2.2
same,Living/dead,"PBMC [1]; donor one, urea 0.1 mol/liter, 17 hours",55
same,Living/dead,"PBMC [1]; donor one, urea 0.2 mol/liter, 17 hours",3.6
same,Living/dead,"PBMC [1]; donor one, urea 0.3 mol/liter, 17 hours",1.8
same,Living/dead,"PBMC [1]; donor one, urea 0.4 mol/liter, 17 hours",0.2
same,Living/dead,"PBMC [1]; donor one, urea 0.8 mol/liter, 17 hours",0.04
same,Living/dead,"PBMC [1]; donor one, urea 1.6 mol/liter, 17 hours, 0 = exclusively dead cells",0
same,Living/dead,"PBMC [1]; donor three, urea 0.05 mol/liter, 17 hours",11.7
same,Living/dead,"PBMC [1]; donor three, urea 0.1 mol/liter, 17 hours",41.3
same,Living/dead,"PBMC [1]; donor three, urea 0.2 mol/liter, 17 hours",30.2
same,Living/dead,"PBMC [1]; donor three, urea 0.3 mol/liter, 17 hours",9
same,Living/dead,"PBMC [1]; donor three, urea 0.4 mol/liter, 17 hours",0.2
same,Living/dead,"PBMC [1]; donor three, urea 0.8 mol/liter, 17 hours",0.02
same,Living/dead,"PBMC [1]; donor three, urea 1.6 mol/liter, 17 hours, 0 = exclusively dead cells",0
same,Living/dead,"PBMC [1]; donor two, urea 0.05 mol/liter, 17 hours",15.9
same,Living/dead,"PBMC [1]; donor two, urea 0.1 mol/liter, 17 hours",1.7
same,Living/dead,"PBMC [1]; donor two, urea 0.2 mol/liter, 17 hours",6.6
same,Living/dead,"PBMC [1]; donor two, urea 0.4 mol/liter, 17 hours",1
same,Living/dead,"PBMC [1]; donor two, urea 0.8 mol/liter, 17 hours",0.1
same,Living/dead,"PBMC [1]; donor two, urea 1.6 mol/liter, 17 hours",0.06
same,dead versus living cells in the PBMC cultures,"PBMC [1]; from a urea concentration of 0.4 mol/liter, 17 hours, regardless of the donor",more dead than living cells
same,ratio of living to dead cells compared to the untreated cells,"PBMC [1]; urea 0 to 0.2 mol/liter, 17 hours",no significant reduction
same,total number of cells (cytolytic effect),"PBMC [1]; urea concentrations above 0.3 mol/liter, 17 hours",significant reduction in the total number of cells
same,IFN-γ secretion from PBMCs,PBMC [2]; urea 0.05 mol/liter,26.2 Spots/2 × 10^6 cells
same,IFN-γ secretion from PBMCs,PBMC [2]; urea 0.1 mol/liter,29.6 Spots/2 × 10^6 cells
same,IFN-γ secretion from PBMCs,PBMC [2]; urea 0.2 mol/liter,26.4 Spots/2 × 10^6 cells
same,IFN-γ secretion from PBMCs,PBMC [2]; urea 0.3 mol/liter,11.0 Spots/2 × 10^6 cells
same,IFN-γ secretion from PBMCs,PBMC [2]; urea 0.4 mol/liter,18.2 Spots/2 × 10^6 cells
same,IFN-γ secretion from PBMCs,PBMC [2]; urea 0.8 mol/liter,14.6 Spots/2 × 10^6 cells
same,IFN-γ secretion from PBMCs,PBMC [2]; urea 1.6 mol/liter,13.4 Spots/2 × 10^6 cells
same,release of IFN-γ from cultures of peripheral blood mononuclear cells,PBMC [2]; urea 0.05 to 1.6 mol/liter,no significantly increased release of IFN-γ
same,toxicity of the urea contained in the injection solution for the experimental animal,rabbit,non-toxic
